Like-named read-outs stand apart in the source and are kept apart here.

The test system of assay [1] is TCH04-577 GII.3 HuNoV. The following applies: J2 enteroids.
Description: (§2) At 72 hours post infection, the cells and media were harvested and viral RNA was quantified by qRT-PCR. Each bile acid was added at a concentration of 0.5 mM.
In assay [2] the test system is TCH04-577 GII.3 HuNoV. The assay is described as follows: microbe, parasite or virus in culture. The following applies: Norovirus, in Homo sapiens, 72 h, read-out: Fold increase in viral genome copies compared to no bile (0-72 hpi).
Description: as §2
Assay [3] deals with TCH04-577 GII.3 HuNoV. Put plainly: GII.3 replication in jejunal enteroids with acid sphingomyelinase inhibitors (RT-qPCR). Type of assay: cell-based, human norovirus. The following applies: inhibitor present 1 hr before and during 24 hrs. Here is the method: FIG. 34. Acid sphingomyelinase (ASM) inhibitors suppress GII.3 HuNoV replication. Jejunal enteroids were pretreated with inhibitors for 1 hr and inoculated with TCH04-577 for 1 hr, washed twice with CMGF(−) and cultured for 24 hrs in the presence of the inhibitors. RNA was extracted from cells and medium at 1 and 24 hpi and genome equivalents were analyzed by RT-qPCR.
Acid sphingomyelinase (ASM) that converts sphingomyelin into ceramide is involved in HuNoV infectivity, in at least certain embodiments.
On the technique in general: In qPCR the cycle at which signal appears reflects the starting amount.

Assay [4] has as its system porcine enteric calicivirus. The following applies: Flynn and Saif, 1988; Chang et al., 2004; cited from earlier work.
Another assay has as its system TCH11-64 GII.4 HuNoV. The assay is described as follows: GII.4 infection of jejunal enteroids after cholesterol extraction or trypsin treatment (VP1-positive cells). Type of assay: cell-based, human norovirus. The following applies: 24 hpi. Here is the method: FIG. 35. Cholesterol extraction using methyl-β-cyclodextrin or treatment of cells with trypsin reduces HuNoV infection. Jejunal enteroids were untreated or treated for 45 min with methyl-β-cyclodextrin (MβCD) or 15 min with trypsin. Trypsin was inhibited with aprotinin and then the monolayer was washed prior to infection. MβCD was present during and after infection. Enteroids were infected with 3×10^6 genome equivalents of TCH11-64 GII.4 HuNoV. Enteroid monolayers were fixed at 24 hpi, VP1 detected by immunofluorescence and the number of VP1-positive cells counted per well.
In specific embodiments of the disclosure, HuNoV use a proteinaceous receptor in lipid rafts for infection. Lipid rafts are specialized domains of the cell membrane and are central for the spatial organization of receptors and signaling molecules. […] Identification of the proteinaceous molecule(s) that function as the receptor for HuNoV replication will allow production of new, simple cell systems that express this receptor and that will support HuNoV replication.

The test system of a further assay is GII.4/2012-1 HuNoV. The assay is described as follows: GII.4/2012-1 replication and CPE in jejunal HIEs with polymyxin B-treated stool filtrate. The class given is cell-based, human norovirus. The following applies: inoculation with polymyxin B-treated samples. Here is the method:
FIGS. 21A-21C. […] (FIG. 21A) GII.4/2012-1 stool filtrates were not treated (−) or treated (+) with 100 μg/m polymyxin B for 24 hours. Then, 9×10^5 genome equivalents of the filtrates were inoculated onto each jejunal HIE monolayer for 1 hour. The monolayers were washed twice with CMGF(−) medium and cultured in differentiation medium. […] Error bars denote standard deviation. (FIG. 21B) Gamma irradiated or non-irradiated GII.4/2012-1 stool filtrates were either not treated (−) or treated (+) with polymyxin B for 24 hours. Jejunal HIE monolayers were inoculated with […] for 1 hour as described above. […]
We next evaluated the growth characteristics of HuNoV infection by assessing cytopathic effect (CPE), antigen detection, and the kinetics of infection. […] Two particle sizes were detected (FIG. 15D), with particles of the expected size (31.6+/−3.3 nm) and some smaller particles (FIG. 15D inset, 18.5+/−3.7 nm). […] By Western blot analysis, nonstructural polyprotein synthesis and processing (as evidenced by the detection of several VPg-containing polyprotein processing intermediates) and capsid protein (VP1) production were first detected at 12 hpi in infected cells but not at 1 or 6 hpi or in mock-infected cells (FIG. 15E). Consistent with the production of virus particles (FIG. 15D), VP1 was detected in the culture supernatant by 24 hpi (FIG. 15E). […]

Assay [5] has as its system TCH04-577 GII.3 HuNoV. Put plainly: GII.3 replication in J2 jHIE monolayers with ceramide and GCDCA. Type of assay: cell-based, human norovirus. The following applies: ceramide alone; 24 hpi. Here is the method:
FIG. 32. At least one lipid, ceramide, enhances GII.3 HuNoV replication alone or in combination with the bile acid GCDCA.J2 jHIE monolayers (p.12) were inoculated with 4.3×105 genome equivalents of TCH04-577 for 1 hr, and after washing twice with CMGF(−) media to remove unbound virus, culture continued in differentiation medium for 24 hrs. The amount of infectious virus was quantified after the washing at 1 hpi (black bars) and at 24 hpi (gray bars). Additives were added to the medium during and post inoculation.
(§1) FIG. 33. Ceramide alone, or in combination with the bile acid GCDCA, enhances GII.3 but not GII.4 HuNoV replication. J2 jHIE monolayers (p.23) were inoculated with 4.3×105 or 9×105 genome equivalents of TCH04-577 or TCH12-580, respectively, for 1 hr and, and after washing twice with CMGF(−) media to remove unbound virus, culture continued in differentiation medium for 72 hrs. The amount of infectious virus was quantified after the washing at 1 hpi (black bars) and 72 hpi (gray bars). Additives (500 μM GCDCA or 500 μM GCDCA+50 μM C2-ceramide) were added to the medium during and post inoculation. Error bars denote standard deviation. p<0.01 comparing genome equivalents at 72 hpi between GCDCA and ceramide+GCDCA.

A further assay concerns GII.4 HuNoV. The assay is described as follows: GII.4 HuNoV replication in jejunal HIE monolayers with bile, bile fractions or additives (RT-qPCR). The class given is cell-based, human norovirus. The following applies: GCDCA bile acid. Here is the method: FIGS. 26A-26D. Bile is not required but enhances GII.4 HuNoV replication. […] The monolayers were inoculated with 5.5×10^5 genome equivalents of (FIG. 26A) GII.4/2006b-3 or, (FIG. 26B) GII.4/2009, or (FIGS. 26C and 26D) GII.4/2012-1 in the absence or presence of the indicated bile for 1 hour at 37° C.
as §1
One can analyze these samples by mass spectroscopy to determine the bile acid, lipid, fatty acid and/or cholesterol content. Bile was also fractionated based on filtration through different molecular cut-off filters. […]

Assay [6] has as its system GI.1, GII.3, GII.17 HuNoVs. Put plainly: Replication of other HuNoV strains in jejunal HIE monolayers with components of the intestinal milieu. The following applies: GI.1, GII.3, GII.17 in jejunal HIE monolayers.
Description: The monolayers were washed three times with CMGF(−) medium and cultured for the indicated days in differentiation medium in the absence (0%) or presence of the indicated concentrations of bile. At 1 hour and the indicated time post-inoculation, the cells and medium were harvested, RNA extracted and viral genome equivalents quantified by RT-qPCR. Data represent the mean of three wells for each treatment and time point. Error bars denote standard deviation. *, P<0.05 comparing genome equivalents from 1 hpi to the indicated time points.
We next tested whether monolayer cultures of jejunal HIEs could support replication of other HuNoV strains (GI.1, GII.3, GII.17). […] Consequently, several components of the intestinal milieu were assessed for their ability to promote replication of these HuNoVs in HIE monolayers.

`C[C@H](CCC(=O)O)[C@H]1CC[C@H]2[C@@H]3[C@@H](O)C[C@@H]4C[C@H](O)CC[C@]4(C)[C@H]3CC[C@]12C` [UDCA, ursodeoxycholic acid]: in the assay on TCH04-577 GII.3 HuNoV [1] (bile acid 500 uM), the “Fold increase in viral genome copies compared to no bile (0-72 hpi)” value (“Fold increase … to no bile (0-72 hpi)” for short) is listed as “no increase”.

As for `C[C@H](CCC(=O)NCCS(=O)(=O)O)[C@H]1CC[C@H]2[C@@H]3CC[C@@H]4C[C@H](O)CC[C@]4(C)[C@H]3CC[C@]12C` [TLCA, taurolithocholic acid], the fold induction at 500 µM with TCH04-577 GII.3 HuNoV [2] is 268. Still for that read-out and setting: under `C[C@H](CCC(=O)NCCS(=O)(=O)O)[C@H]1CC[C@H]2[C@@H]3CC[C@@H]4C[C@H](O)CC[C@]4(C)[C@H]3C[C@H](O)[C@]12C` [TDCA, Taurodeoxycholic acid] stands 95.

As to `CN(C)CCCN1c2ccccc2Sc2ccc(Cl)cc21` [chlorpromazine], in the assay on TCH04-577 GII.3 HuNoV [3], the GII.3 replication entry is “significantly reduced” and the “dose dependence of the effect on GII.3 replication” value is on record as “dose-dependent decrease”. Consider `C[C@H](CCC(=O)O)[C@H]1CC[C@H]2[C@@H]3[C@H](O)C[C@@H]4C[C@H](O)CC[C@]4(C)[C@H]3C[C@H](O)[C@]12C` [CA, cholic acid], for which the fold induction at 500 µM in the assay with TCH04-577 GII.3 HuNoV [2] fell in the range of 49 to 63. As to `C[C@H](CCC(=O)O)[C@H]1CC[C@H]2[C@@H]3[C@H](O)C[C@@H]4C[C@H](O)CC[C@]4(C)[C@H]3CC[C@]12C` [CDCA, chenodeoxycholic acid], the “Fold increase … to no bile (0-72 hpi)” value in the assay with TCH04-577 GII.3 HuNoV [1] (bile acid 100 uM) was “no increase”. Regarding `C[C@H](CCC(=O)NCCS(=O)(=O)O)[C@H]1CC[C@H]2[C@@H]3[C@@H](O)C[C@@H]4C[C@H](O)CC[C@]4(C)[C@H]3CC[C@]12C` [TUDCA, Tauroursodeoxycholic acid], the fold induction at 500 µM in the assay with TCH04-577 GII.3 HuNoV [2] turned out to be 27. In assay [4], the “replication of porcine enteric calicivirus” value is “did not enhance”. In the case of `C[C@H](CCC(=O)NCC(=O)O)[C@H]1CC[C@H]2[C@@H]3[C@H](O)C[C@@H]4C[C@H](O)CC[C@]4(C)[C@H]3C[C@H](O)[C@]12C` [GCA, Glycocholic acid], the fold induction at 500 µM with TCH04-577 GII.3 HuNoV [2] turned out to be 48. Same read-out and setting: under `C[C@H](CCC(=O)NCCS(=O)(=O)O)[C@H]1CC[C@H]2[C@@H]3[C@H](O)C[C@@H]4C[C@H](O)CC[C@]4(C)[C@H]3C[C@H](O)[C@]12C` [TCA, Taurocholic acid] stands 65.

For the molecule `C[C@H](CCC(=O)NCCS(=O)(=O)O)[C@H]1CC[C@H]2[C@@H]3[C@H](O)C[C@@H]4C[C@H](O)CC[C@]4(C)[C@H]3CC[C@]12C` [TCDCA, Taurochenodeoxycholic acid], the “Fold increase … to no bile (0-72 hpi)” value in the assay on TCH04-577 GII.3 HuNoV [1] (bile acid 500 uM) is on record as 48-103 fold. Take methyl-β-cyclodextrin: the “GII.4 infection (VP1-positive cells per well)” value in the assay on TCH11-64 GII.4 HuNoV is “significantly reduced”. Take polymyxin B: in the assay on GII.4/2012-1 HuNoV, the CPE result is “not reduced”. On to `CCCCCCCCCCCCC/C=C/[C@@H](O)[C@H](CO)NC(C)=O` [Ceramide, C2-ceramide], for which the GII.3 replication entry in the assay with TCH04-577 GII.3 HuNoV [5] was “enhances”.

With `CC(CCC(=O)NCC(=O)O)C1CCC2C3CCC4CC(O)CCC4(C)C3CC(O)C12C` (stereo not shown) [GDCA, glycodeoxycholic acid], in the assay on TCH04-577 GII.3 HuNoV [2], the fold induction at 500 µM came to 160. `CC(CCC(=O)NCC(=O)O)C1CCC2C3C(O)CC4CC(O)CCC4(C)C3CCC12C` (stereo not shown) [GCDCA, Glycochenodeoxycholic acid]: the GII.4 replication result with GII.4 HuNoV is reported as “can enhance”. For the same molecule, in the assay with TCH04-577 GII.3 HuNoV [2], the fold induction at 500 µM lay within 71 to 106. `CN(C)CCC=C1c2ccccc2CCc2ccccc21` [amitriptyline]: in the assay with TCH04-577 GII.3 HuNoV [3], the GII.3 replication result is “significantly reduced” and the “dose dependence of the effect on GII.3 replication” value was “dose-dependent decrease”.

B1: trypsin: protease that cleaves proteins (protein, UniProt P00760 24-246, looked up)
Serine protease 1: IVGGYTCGANTVPYQVSLNSGYHFCGGSLINSQWVVSAAHCYKSGIQVRLGEDNINVVEGNEQFISASKSIVHPSYNSNTLNNDIMLIKLKSAASLNSRVASISLPTSCASAGTQCLISGWGNTKSSGTSYPDVLKCLKAPILSDSSCKSAYPGQITSNMFCAGYLEGGKDSCQGDSGGPVVCSGKLQGIVSWGSGCAQKNKPGVYTKVCNYVSWIKQTIASN
As to B1, the HuNoV replication entry in assay [6] is “failed to enhance”. Further, the “GII.4 infection (VP1-positive cells per well)” value in the assay on TCH11-64 GII.4 HuNoV was “reduced”.

The values above are taken from US11920165B2, “Cultivation of human noroviruses” (Baylor College of Medicine, priority 2015, dated 2024).
